{
  "source": "patent US20220362299A1",
  "about": "“ENGINEERED NATURAL KILLER CELLS AND METHODS FOR USING THE SAME IN IMMUNOTHERAPY AND AUTOPHAGY INHIBITON TECHNIQUES” (Purdue Research Foundation, priority 2019, published 2022)",
  "key": {"[1]": {"tested_on": "GBM43 cells", "test": "ELISA of CCL5 and CXCL10 in supernatant of GBM43 cells", "format": "cell-based, human", "settings": "CQ 50 μM, 24 h", "text": "To evaluate changes in the protein levels of these chemokines and gain more insight into the underlying molecular mechanisms, chemokine concentrations were quantified in the conditioned media of CQ-treated GBM43 cells using ELISA in absence and presence of various pharmacological inhibitors driving signaling pathways for these chemokines. This included the PI3K inhibitor LY294002, NF-κB inhibitor BAY11-7082 and JNK inhibitor SP600125.\nMore specifically, to measure secreted CCL5 and CXCL10, GBM43 cells were treated with CQ at a final concentration of 50 μM in presence or absence of various small molecule inhibitors, including LY294002, BAY11-7082 and SP600125 for 24 hours. Supernatants were collected and the levels of CCL5 and CXCL10 were quantified using Human CCL5 and CXCL10 Biolegend-ELISA MAX™ Deluxe Sets according to the manufacturer's directions. To look at the levels of multiple chemokines secretion from GBM43 cells, the cell culture supernatants were also collected and all the selected targets were determined with the chemokine array provided by Eve Technologies (Calgary, Canada)."}, "[2]": {"tested_on": "GBM43 cells", "test": "Killing of CQ-treated GBM43 cells by pNK cells", "format": "cell-based, human", "settings": "E/T ratio 5, 4 h", "procedure": "GBM43 cells were first treated with CQ (varying concentrations), then collected and re-seeded into 96 wells. After overnight culture, the NK cells (NK92 control cells and pNK cells against BECN1^−GBM43) were added at an E/T ratio of 5 and co-incubated for 4 h.\nTo further investigate the impact of the inhibition of autophagy on the cytotoxic capacity of NK cells, CQ-treated GBM43 cells or BECN1^− GBM43 cells were incubated with pNK cells for 4 h at an E/T ratio of 5."}, "[3]": {"tested_on": "GBM", "settings": "chronic administration, controlled randomized trial / Phase III, diphosphate salt, cited from earlier work"}, "[4]": {"tested_on": "GBM43-Luc cells", "test": "Orthotopic GBM43 (Luc) xenograft model", "format": "in vivo, NSG mice", "procedure": "Additionally, orthotopic GBM xenografts were generated using NSG mice as previously described. Briefly, on day 0, the GBM43 (Luc) cells (1×10^5) were stereotactically implanted into the right forebrain through a digitalized stereotactic delivery system. […] CD73.mCAR-pNK cells were administered once a week for three weeks. Tumor volumes were monitored and recorded using the Spectral Ami Optical imaging system. Body weights of the mice were also recorded during the treatment period. At the end of the treatment, the mice were sacrificed and whole brain tissues from each mouse were harvested for adenosine measurement and IHC/IF analyses.\nImmunohistochemistry (IHC) and immunofluorescence (IF) staining were carried out at the Histology Research Laboratory at the Purdue University College of Veterinary Medicine (West Lafayette, Ind.). Briefly, the tumors were fixed in 10% neutral-buffered formalin, embedded in paraffin, and cut into 3-5 μm sections.\nFor intracranial GBM xenografts, the NK cells in tumors were detected through the staining using human NKp46/NCR1 antibody. CCL5 and CXCL10 expression in the tumors were detected through the staining using human CCL5/RANTES antibody and CXCL10 antibody, respectively. CD73 expression in the tumors was detected through the staining using human CD73 antibody.\nIn addition to the foregoing, intratumoral adenosine concentrations were also assessed. Brain tissues were harvested post-treatment, rinsed with cold PBS and homogenized in PBS. After that, the suspension was centrifuged at 10,000 g for 10 minutes at 4° C. and the supernatant was collected. Adenosine concentrations were determined using an Adenosine Assay Kit according to the manufacturer's directions. The IHC staining was performed as described above."}, "[5]": {"tested_on": "GBM43 cells", "test": "GBM43 cell viability after CQ treatment (CCK-8)", "format": "cell-based, human", "settings": "24 h", "procedure": "Alternatively, autophagy was inhibited pharmacologically via treatment with chloroquine (CQ), a common FDA-approved autophagy inhibitor (see FIG. 11). These targeting approaches were tested on both NK cell infiltration and effector functions. For this approach, GBM43 cells were treated with different concentrations of CQ. To determine in vitro cell viability in response to CQ, GBM43 cells were seeded in 96-well plates at a density of 1×10^4 cells/well. After overnight culture, the cells were treated with different concentrations of CQ and incubated for another 24 hours. The cell viability was then determined with CCK-8 assay analysis."}, "[6]": {"tested_on": "GBM43 cells", "test": "Chemokine mRNA in GBM43 cells by RT-PCR", "format": "cell-based, human", "settings": "vs control", "procedure": "Total RNAs were extracted using the mirVana™ miRNA Isolation Kit and the concentrations determined with a Qubit 4 Fluorometer. The RNA (80 ng) from each sample was reverse-transcribed using the qScript™ One-Step SYBR® Green qRT-PCR kit in a ViiA-7 RT-PCR system (Thermo Fisher Scientific, Waltham, Mass.). The GAPDH gene was used as the endogenous control. The comparative Ct values of genes of interest were normalized to the Ct value of GAPDH. The 2^−Δct method was used to determine the relative expression of the genes, while the 2^−ΔΔct method was used to calculate fold changes of gene expression over control."}, "[7]": {"tested_on": "CD73", "test": "CD73 activity of GBM43 cells (AMP hydrolysis, malachite green phosphate assay)", "format": "cell-based, human", "settings": "various concentrations of CQ, 24 h", "procedure": "To test for CD73 activity and its ability to generate adenosine, GBM43 cells were seeded at 2×10^4 cells per well in a 96-well plate in complete DMEM. After overnight incubation, GBM43 cells were incubated with anti-CD73 scFv following uPA (100 nM)-mediated cleavage from either CD73.mCAR-NK92 or CD73.mCAR-pNK cells during incubation for 6 hours. Then, the cell medium was removed and cells were rinsed three times with phosphate-free buffer (117 mM NaCl, 5.3 mM KCl, 1.8 mM MgCl2, 26 mM NaHCO3, 10 mM glucose, pH 7.4, diluted in ddH2O). AMP (250 μM final), diluted in phosphate-free buffer, was added and incubated for 10 min at 37° C. Finally, the phosphate (Pi) concentrations resulting from AMP hydrolysis were measured using a malachite green phosphate assay kit following the manufacturer's instructions."}, "[8]": {"tested_on": "GBM43 cells", "test": "Surface expression of NKG2DL, CD73 and GD2 on GBM43 cells after CQ (flow cytometry)", "format": "cell-based, human", "settings": "24 h", "procedure": "In addition to the increase in NK cell intratumoral infiltration, NK2G2DL expression (MFI and percentage) on GBM43 cells after 24 hours of treatment with various concentrations of CQ was evaluated."}},
  "note": "pIC50: −log10 of the molar value. Read-outs that look alike come from different tables or passages of the source.",
  "data": [
    {"substance": "Chloroquine diphosphate salt [CQ]", "values": [
      {"measurement": "secreted CCL5 vs untreated control cells", "setting": "[1]", "value": "significantly higher amounts"},
      {"measurement": "secreted CXCL10 vs untreated control cells", "setting": "[1]", "value": "significantly higher amounts"},
      {"measurement": "killing of CQ-treated GBM43 cells by human NK cells", "setting": "[2]", "value": "sensitize GBM cells to superior killing"},
      {"measurement": "response of GBM to antineoplastic therapy with added chloroquine", "setting": "[3]", "value": "enhance clinical responses"},
      {"measurement": "response of GBM to antineoplastic therapy with added chloroquine", "setting": "[3]; listed as chloroquine (CQ)", "value": "significantly enhanced response"},
      {"measurement": "tumor growth (bioluminescence imaging)", "setting": "[4]; CQ 50 mg/kg IP, CD73.mCAR-pNK intracranial, weekly for three weeks, vs control group", "value": "no significant effect"},
      {"measurement": "CCL5 expression in tumor tissues (IHC)", "setting": "[4]; mouse, in vivo", "value": "robustly up-regulated"},
      {"measurement": "CXCL10 expression in tumor tissues (IHC)", "setting": "[4]; mouse, in vivo", "value": "robustly up-regulated"},
      {"measurement": "crossing of the blood-brain barrier in vivo", "setting": "[4]; mouse, in vivo", "value": "able to cross the blood-brain barrier"},
      {"measurement": "pIC50", "setting": "[5]", "value": 4.17},
      {"measurement": "CCL5 mRNA in GBM43 cells", "setting": "[6]; CQ-treated", "value": "substantial upregulation"},
      {"measurement": "CXCL10 mRNA in GBM43 cells", "setting": "[6]; CQ-treated", "value": "substantial upregulation"},
      {"measurement": "CCL2 mRNA in GBM43 cells", "setting": "[6]; inhibition of autophagy", "value": "decreased transcriptional levels"},
      {"measurement": "CXCL12 mRNA in GBM43 cells", "setting": "[6]; inhibition of autophagy", "value": "decreased transcriptional levels"},
      {"measurement": "production of adenosine in GBM cells mediated by CD73", "setting": "[7]", "value": "significantly reduced"},
      {"measurement": "expression of CD73 (MFI) on GBM43 cells", "setting": "[8]; CQ 6.25 μM", "value": "~70 % of control"},
      {"measurement": "expression of GD2 (MFI) on GBM43 cells", "setting": "[8]; CQ 50 μM or higher", "value": "decreased"},
      {"measurement": "NKG2DL expression (% and MFI) on GBM43 cells", "setting": "[8]; CQ at various concentrations", "value": "increased significantly"},
      {"measurement": "percentage expression (%) of GD2 on GBM43 cells", "setting": "[8]; CQ up to 100 μM then constant, control cells ~58%", "value": "~46", "unit": "%"}
    ]}
  ]
}
